Format in all cases: functional, cell-based
In assay [1] the test system is MCF7. The assay can be described thus: Cytotoxicity against human MCF7 cells assessed as reduction in cell viability after 48 hrs by trypan blue exclusion assay. As to conditions: MCF7, 48 h.
Assay [2] has as its system MCF7. The assay can be described thus: Cytotoxicity against human MCF7 cells assessed as reduction in cell viability after 48 hrs by MTT assay. The following applies: MCF7, 48 h. For orientation: Tetrazolium assays rely on reduction of a dye to a coloured formazan, in cell work by metabolically active cells.
Assay [3] has as its system A549. Briefly: Cytotoxicity against human A549 cells assessed as reduction in cell viability after 48 hrs by trypan blue exclusion assay. The following applies: A549, 48 h.
The test system of assay [4] is A549. Briefly: Cytotoxicity against human A549 cells assessed as reduction in cell viability after 48 hrs by MTT assay. As to conditions: A549, 48 h.
In assay [5] the test system is Ehrlich. Briefly: Cytotoxicity against mouse EAC cells assessed as reduction in cell viability after 48 hrs by trypan blue exclusion assay.
The subject of assay [6] is Ehrlich. The assay can be described thus: Cytotoxicity against mouse EAC cells assessed as reduction in cell viability after 48 hrs by MTT assay.
Assay [7] can be described thus: Cytotoxicity against mouse DLA cells assessed as reduction in cell viability after 48 hrs by trypan blue exclusion assay.
Assay [8] is described as follows: Cytotoxicity against mouse DLA cells assessed as reduction in cell viability after 48 hrs by MTT assay.
Assay [9] concerns MDA-MB-468. The assay can be described thus: Cytotoxicity against human MDA-MB-468 cells assessed as reduction in cell viability after 48 hrs by trypan blue exclusion assay. The following applies: MDA-MB-468, 48 h.
Assay [10] concerns MDA-MB-468. The assay can be described thus: Cytotoxicity against human MDA-MB-468 cells assessed as reduction in cell viability after 48 hrs by MTT assay. The following applies: MDA-MB-468, 48 h.

For orientation: IC50 means the concentration needed to halve the response being measured.

`CC(C)c1ccc(OCC(=O)Nc2nc(-c3ccc(Cl)cc3)cs2)c(C(C)C)c1`: the half-maximal inhibitory concentration (IC50) in assay [1] stood at 40.6 µM; in assay [2], 40.1 µM; in assay [3], 48.6 µM; in [4], 48.8 µM; in [5], 62.8 µM; in assay [6], 62.2 µM. Further, the 50% inhibitory concentration (IC50) in assay [7] worked out at 54 µM; in [8], 54.3 µM; in assay [9], 41.1 µM; in assay [10] it was 41.7 µM.

For `Cc1ccc(OCC(=O)Nc2nc(-c3ccc(C)cc3)cs2)cc1`, the IC50 in [1] is 41.4 µM; in assay [2], 41.3 µM; in assay [3], 48.8 µM; in [4], 48.3 µM; in assay [5], 45.1 µM; in assay [6], 45.7 µM. The IC50 in assay [7] stood at 39.7 µM; in assay [8] it was 40.1 µM; in assay [9], 37.1 µM; in assay [10], 37.2 µM.

`Cc1ccccc1OCC(=O)Nc1nc(-c2ccc(Br)cc2)cs1`: the IC50 turned out to be 39.7 µM in assay [1]; 40.1 µM in assay [2]; 49.8 µM in assay [3]; 50.1 µM in assay [4]; 44.5 µM in [5]; 44.9 µM in assay [6]. Further, the 50% inhibitory concentration (IC50) in assay [7] was 62.8 µM; in assay [8] it was 62.2 µM; in assay [9] it was 44.5 µM; in assay [10], 44.9 µM.

`Cc1ccc(-c2csc(NC(=O)COc3ccc(F)cc3)n2)cc1`: the half-inhibitory concentration (IC50) stood at 18.1 µM in [1]; 18.3 µM in [2]; 19.1 µM in [3]; 19.3 µM in assay [4]; 18.1 µM in [5]; 18.4 µM in assay [6]. Moreover, the IC50 in [7] amounted to 18.1 µM; in [8] it was 18.9 µM; in [9] it was 24.4 µM; in assay [10] it was 24.9 µM.

Consider `O=C(COc1ccc(Cl)cc1)Nc1nc(-c2ccc(Cl)cc2)cs1`, for which the IC50 in assay [1] was 44.1 µM; in [2] it was 44.5 µM; in [3] it was 49.1 µM; in assay [4], 49.9 µM; in [5] it was 52.1 µM; in assay [6], 51.9 µM. The IC50 stood at 52.1 µM in assay [7], 53.2 µM in assay [8], 56.8 µM in assay [9] and 55.5 µM in [10].

With `O=C(COc1ccc(Br)cc1)Nc1nc(-c2ccc(Br)cc2)cs1`, the IC50 was found to be 44.5 µM in assay [1]; 44.9 µM in assay [2]; 46.6 µM in assay [3]; 46.5 µM in assay [4]; 41.1 µM in assay [5]; 41.7 µM in [6]. Further, the IC50 in assay [7] came to 52.1 µM; in [8], 52.4 µM; in assay [9] it was 41.1 µM; in assay [10], 41.7 µM.

As to `Cc1cc(OCC(=O)Nc2nc(-c3ccc(Br)cc3)cs2)ccc1Cl`, the IC50 stood at 51.7 µM in [1]; 52.1 µM in assay [2]; 51.7 µM in assay [3]; 52.1 µM in assay [4]; 47.1 µM in [5]; 47.8 µM in assay [6]. The half-maximal inhibitory concentration (IC50) came out at 39.7 µM in assay [7], 40.1 µM in assay [8], 51.7 µM in assay [9] and 52.1 µM in [10].

`O=C(COc1ccc(Cl)cc1)Nc1nc(-c2ccc(Br)cc2)cs1`: the IC50 came out at 41.4 µM in assay [1]; 41.1 µM in assay [2]; 46.4 µM in [3]; 46.1 µM in assay [4]; 40.6 µM in assay [5]; 40.1 µM in assay [6]. Further, the IC50 in assay [7] stood at 55.9 µM; in assay [8], 60.3 µM; in assay [9], 51.7 µM; in [10] it was 52.1 µM.

`O=c1[nH]cc(F)c(=O)[nH]1` [FLUOROURACIL]: the concentration for half-maximal inhibition (IC50) in assay [1] came to 10.6 µM; in assay [2], 10.2 µM; in assay [5], 9.6 µM; in assay [6], 9.2 µM; in assay [7], 10.6 µM; in assay [8], 10.8 µM. Moreover, the IC50 came to 44.6 µM in assay [9] and 44.9 µM in [10].

Source of the values: ChEMBL document CHEMBL4251560, “The Novel 4-Phenyl-2-Phenoxyacetamide Thiazoles modulates the tumor hypoxia leading to the crackdown of neoangiogenesis and evoking the cell death” (Eur J Med Chem, 2018).
